# Measurements published in patent publication US10045994B2, “Agents for treating multiple myeloma” (SERVICIO ANDALUZ DE SALUD, priority 2013, dated 2018).
# “Also recorded” adds a separate entry of the source. Like-named read-outs stand apart in the source and are kept apart here.
# Key:
# [1] = tested on: CD38+ plasma cells; assay: 7AAD viability of plasma cells in primary bone marrow culture of myeloma patients; format: cell-based, human
# Description: Finally, the authors of the present invention evaluated the toxicity of cannabinoid agent WIN 55,212-2, which was determined in terms of cell viability by means of two types of assays, one based on the drop in 3(4,5dimethyl-2-thiazoyl)-2,5-diphenyltetrazolic bromide (MTT), and another one based on the interaction of 7AAD. Primary cultures of mononuclear cells obtained from peripheral blood from healthy donors (CD34+ hematopoietic progenitors) and from bone marrow of patients suffering multiple myeloma (CD64+, granulocytes (B), CD45+, lymphocytes (C) and CD38+, plasma cells (D)) were used.
# The plasma cells, granulocytes and lymphocytes were obtained from bone marrow samples from patients with multiple myeloma after hypotonic lysis with ammonium chloride (0.16 M in 0.17 M Tris, pH 7.6) for 10 min at room temperature, for the purpose of removing the erythrocyte cell population. The cell suspension resulting from lysis, which only contains mononuclear cells, was seeded in multiwell plates at the same cell density as the progenitor cells using supplemented RPMI medium plus 20% fetal bovine serum.
# The primary cultures were incubated in the presence and absence of the cannabinoid agent WIN 55,212-2 at different concentrations. […]
# (§1) For the viability analysis by means of flow cytometry, the cells were treated with suitably labeled monoclonal antibodies for the identification of each of the cell types used. Once labeled; the cells were exposed for 15 min to 7AAD ([…]) to evaluate cell viability; the reading was performed in the cytometer and analyzed with the computer program adapted for the cytometer. At least 100,000 events were acquired, and the mean fluorescence intensity was obtained.
# (§2) The authors of the present invention evaluated the toxicity of cannabinoid agent WIN 55,212-2, which was determined in terms of cell viability by means of two types of assays, one based on the drop in 3(4,5dimethyl-2-thiazoyl)-2,5-diphenyltetrazolic (MTT) bromide, and another one based on the interaction of the 7AAD. […]
# [2] = tested on: multiple myeloma cell line MM1.S; assay: MTT cell viability, multiple myeloma cell line MM1.S; format: cell-based
# Description: In this sense, in order to carry out these assays the authors incubated the myeloma cell line MM1.S at different concentrations with the cannabinoid agent WIN 55-212,2 for 48 and 96 hours, and cell viability was determined by means of MTT metabolization. Mean proliferation values of untreated control cell cultures were taken as 100%. The data corresponds to the means+/−the standard deviation of the triplicates of each of the 4 assays performed. […] Cell viability also drops after 96 hours of exposure to the drug at the same concentrations.
# (§3) The method for the determination of cell viability by means of the MTT assay is based on the capacity that viable cells have of metabolizing 3-(4,5-dimethylthiazol-2-yl)-2,5-diphenyltetrazol (MTT) bromide. The metabolic reduction of MTT due to the action of the mitochondrial enzyme, succinate dehydrogenase, gives rise to the insoluble and colored form called formazan, which can be quantified by means of spectrocolorimetry. The amount of living cells is proportional to the optical density resulting.
# (§4) After incubation with cannabinoids, 10 microliters of MTT were added to each well and were incubated 2-4 hours in the same conditions. The reaction is subsequently stopped, the crystallized formazan is solubilized and optical density was determined at 450 nm in a plate spectrophotometer. All the assays were performed in triplicate.
# In this sense, in order to carry out these assays the authors incubated myeloma cell line MM1.S at different concentrations with the cannabinoid agent WIN 55-212,2 for 48 and 96 hours, and cell viability was determined by means of MTT metabolization. Mean proliferation values of untreated control cell cultures were taken as 100%. The data corresponds to the means +/− the standard deviation of the triplicates of each of the 4 assays performed. […] Cell viability also drops after 96 hours of exposure to the drug ay the same concentrations.
# [3] = tested on: CD45+ lymphocytes; assay: 7AAD viability of lymphocytes in primary bone marrow culture of myeloma patients; format: cell-based, human
# Description: (§5) Finally, the authors of the present invention evaluated the toxicity of cannabinoid agent WIN 55,212-2, which was determined in terms of cell viability by means of two types of assays, one based on the drop in 3(4,5dimethyl-2-thiazoyl)-2,5-diphenyltetrazolic bromide (MTT), and another one based on the interaction of 7AAD. Primary cultures of mononuclear cells obtained from peripheral blood from healthy donors (CD34+ hematopoietic progenitors) and from bone marrow of patients suffering multiple myeloma (CD64+, granulocytes (B), CD45+, lymphocytes (C) and CD38+, plasma cells (D)) were used. […]
# as §1, §2
# [4] = tested on: myeloma cell line U266; assay: MTT cell viability, myeloma cell line U266; format: cell-based; conditions: for cytotoxicity at 50 µM: Homo sapiens
# Description: In order to determine the effect of the cannabinoid compound WIN 55,212-2, myeloma cell line U266 was incubated for a period of 48 and 96 hours with increasing concentrations of WIN 55,212-2 between 0.5 and 50 uM; cell viability was determined by means of the MTT metabolization. The MTT assay is based on the capacity of the mitochondrial enzyme, succinate dehydrogenase, of viable cells for transforming the tetrazolium salt MTT into a blue-colored product, MTT formazan, which is proportional to the number of living cells present. The mean proliferation values of the untreated control cell cultures were taken as 100%.
# as §3, §4
# To determine the effect of cannabinoid compound WIN 55,212-2, myeloma cell line U266 was incubated for a period of 48 and 96 hours with increasing concentrations of WIN 55,212-2 between 0.5 and 50 uM; cell viability was determined by means of MTT metabolization. The MTT assay is based on the capacity of the mitochondrial enzyme, succinate dehydrogenase, of viable cells to transform tetrazolium salt MTT into a blue-colored product, formazan MTT, which is proportional to the number of living cells present. Mean proliferation values of untreated control cell cultures were taken as 100%.
# [5] = tested on: CD64+ granulocytes (polymorphonuclear cells); assay: 7AAD viability of granulocytes in primary bone marrow culture of myeloma patients; format: cell-based, human; conditions: 0.5-50 micromol, 18 h
# Description: as §5, §1, §2
# [6] = tested on: CD34+ hematopoietic progenitors; assay: MTT cytotoxicity on CD34+ hematopoietic progenitors from healthy donors; format: cell-based, human; conditions: CD34+ hematopoietic progenitors of healthy donors, 0.5-50 micromol, 12 or 18 h
# Description: as §5
# The method for the determination of cell viability by means of the MTT assay is based on the capacity that viable cells have of metabolizing 3-(4,5-dimethylthiazol-2-yl)-2,5-diphenyltetrazol (MTT) bromide. The metabolic reduction of MTT due to the action of the mitochondrial enzyme, succinate dehydrogenase, gives rise to the insoluble and colored form called formazan, which can be quantified by means of spectrocolorimetry. […]
# After incubation with cannabinoids, 10 microliters of MTT were added to each well and were incubated 2-4 hours in the same conditions. The reaction is subsequently stopped, the crystallized formazan is solubilized and optical density was determined at 450 nm in a plate spectrophotometer. […]
# [7] = tested on: myeloma cell line U266; assay: Cell viability by flow cytometry (7AAD labeling), U266; format: cell-based; conditions: U266, 7AAD flow cytometry, 48 h
# Description: These same assays were repeated incubating the myeloma cell line U266 for a period of 48 hours with increasing concentrations of WIN 55,212-2 between 0.5 and 50 uM.
# as §1
# These same assays were repeated, incubating myeloma cell line U266 for a period of 48 hours with increasing concentrations of WIN 55,212-2 between 0.5 and 50 uM. Nevertheless, cell viability was determined by means of flow cytometry instead of by means of MTT metabolization.
structure (smiles),measurement,setting,value
"Cc1c(C(=O)c2cccc3ccccc23)c2cccc3c2n1[C@H](CN1CCOCC1)CO3 [WIN 55,212-2, (R)-(+)-[2,3-Dihydro-5-methyl-3-(4-morpholinylmethyl)pyrrolo[1,2,3-de]-1,4 benzoxazin-6-yl]-1-naphtalenylmethanone]",cytotoxicity at 50 µM,"[1]; Homo sapiens, 18 h, read-out: reduction of cell viability",> 80%
same,doses producing a drastic drop in cell viability,"[1]; plasma cells, bone marrow primary culture, 12 or 18 h",greater than 10 uM
same,population of plasma cells after incubation,"[1]; plasma cells, bone marrow primary culture, 18 h, 20 uM and 50 uM",drastically reduced
same,sensitivity of cell line MM1.S compared with cell line U266,[2]; 48 and 96 h,more sensitive
same,concentration after which cell viability noticeably dropped,"[2]; MM1.S, 48 h",greater than 1 uM
same,cytotoxicity,"[2]; MM1.S, 48 h, 10 uM, 20 uM and 50 uM",greater than 50%
same,cell viability after longer incubation,"[2]; MM1.S, 96 h, same concentrations as at 48 h",also drops; also recorded: also affected
same,drop in cell viability at 96 h compared with 48 h,"[2]; MM1.S, 96 h vs 48 h",lower than at short incubation times
same,loss of viability,"[3]; 0.5-50 micromol, 12 or 18 h",only detected at the highest dose
same,drop in cell viability,"[3]; 7AAD, 18 h, 50 uM",40%
same,cytotoxicity at 50 µM,"[4]; U-266, 48 h, read-out: inhibition of cell viability, U266, MTT, 48 h, 50 uM",~60%
same,cytotoxicity at 50 µM,"[4]; U-266, 96 h, read-out: inhibition (drop) of cell viability, U266, MTT, 96 h, 50 uM",~80%
same,cell viability drops to,"[4]; U266, MTT, 48 h, 10 uM and 20 uM, untreated control = 100%",40%
same,inhibition of cell viability,"[4]; U266, MTT, 48 h, between 10 uM and 20 uM",about 40%
same,cell viability,[5],not affected
same,cell viability,[6],not affected
same,"concentration from which a cytotoxic effect (significant drop in cell viability, p<0.05) is seen",[7],≥ 10 µM
